According to ChEMBL document CHEMBL5030551, “Identification of Plasmodium falciparum falcilysin inhibitors by a virtual screen” (Bioorg Med Chem Lett, 2021):

Columns and labels:
[1] = Inhibition of recombinant Plasmodium falciparum FLN expressed in Escherichia coli BL21 using Dabcyl-HKRHSFRMRG-EDANS as substrate incubated for 10 mins by fluorecence assay
Plasmodium falciparum = test: Antiplasmodial activity against Plasmodium falciparum 3D7 infected in human red blood cells assessed as reduction in parasitemia measured after 70 to 80 hrs by SYBR Green dye based assay; format: functional, organism-based, RBC; details: 3D7, Erythrocyte

SMILES | IC50 [1] [µM] | EC50 (Plasmodium falciparum) [µM]
CC(=O)n1cc([C@H]2CC(=O)OC3=C2C(=O)c2ccccc23)c2ccccc21 | 11 | > 25
O=C(Nc1ccc(Cl)cc1)Nc1nnc2nc(CC(=O)c3ccc4ccccc4c3)c(=O)[nH]n12 | 19 | 12
O=C1/C(=c2/c3ccccc3n3c(=O)c4ccccc4nc23)Nc2ccccc21 | > 25 | 5.1
C[C@@H](c1cc(=O)[nH]c(N[C@H]2CCc3ccccc32)n1)n1ncc2ccccc2c1=O | > 25 | > 25
O=C(Nc1nc2ccccc2[nH]1)c1cc(-c2ccccn2)nc2ccccc12 | > 25 | 14.9
O=C(c1ccc2c3c(cccc13)CC2)[C@H]1CCCN(Cc2cc(=O)[nH]c(=O)[nH]2)C1 | > 25 | > 25
C[C@@H]1Cc2cc(-c3cc(CC(=O)N=c4[nH]c5ccccc5[nH]4)no3)ccc2O1 | > 25 | > 25
O=C1c2ccc3c(c2CC12Cc1ccc4c(c1C2=O)CCCC4)CCCC3 (stereo not given) | > 25 | > 25
Cc1ccc(N2C[C@@H](c3nc(-c4ccc5oc(C)nc5c4)no3)CC2=O)cc1 | > 25 | > 25
Cc1cc2cc(CCNC(=O)c3ccc4ccccc4c3)c(=O)[nH]c2cc1C | > 25 | 5.5
O=C(c1cc(-c2cccc3cccnc23)cc(-n2cnnn2)c1)N1CCCCC1 | > 25 | > 25
CN1CCC2(CC1)Oc1ccccc1[C@H]1CC(c3cccc4ccccc34)=NN12 | > 25 | 3.8
CC1=C(C(=O)Nc2ccccc2C)[C@H](c2ccc3c(c2)OCO3)n2ncnc2N1 | > 25 | > 25
Cc1cccc(-c2nc3c4ccccc4nc(NCCc4ccccc4)n3n2)c1 | > 25 | 5.3
Cc1nn(-c2cccc(C(=O)N3CCN(C)C(=O)C3)c2)c(=O)c2ccccc12 | > 25 | > 25
Cn1nc(C(=O)NCc2ccccc2)c2c1CCN(Cc1cc3ccccc3[nH]1)C2 | > 25 | 3.8
O=C1NC(=O)C(c2ccccc2)(c2ccccc2)[C@@H]2C[C@@H]3c4[nH]c5ccccc5c4CCN3C[C@H]12 | 12 | 1.7
O=c1/c(=C/c2ccc(/C=c3\sc4nc5ccccc5n4c3=O)cc2)sc2nc3ccccc3n12 | > 25 | > 25
Nc1c(C(=O)Nc2ccc3c(c2)C(=O)c2ccccc2C3=O)ccc2c1C(=O)c1ccccc1C2=O | 1.76 | > 25
Cc1ccc(-c2noc(CSc3nc(O)cc(-c4ccccc4)n3)n2)cc1C | > 25 | > 25
O=C(NN1C(=O)c2cccc3cccc(c23)C1=O)NN1C(=O)c2cccc3cccc(c23)C1=O | > 25 | > 25
O=C1Oc2ccccc2C(=O)Oc2ccccc2C(=O)Oc2ccccc2C(=O)Oc2ccccc21 | > 25 | > 25
Cc1ccc(-c2nc3cccnc3n2CCNC(=O)Nc2ccccc2F)cc1 | > 25 | > 25
O=c1cc(CN2CCc3n[nH]c(-c4cccc5ccccc45)c3C2)[nH]c(=O)[nH]1 | > 25 | > 25
Cc1nc2ccccc2c(=O)n1Cc1noc(-c2cc3ccccc3oc2=O)n1 | > 25 | > 25
c1cnc2c(c1)CN(c1nc(-c3c[nH]c4ccccc34)nc3c1CNC3)CC2 | 21 | 4.4
Cc1cccc(NC(=O)Cn2c(C)cc(=O)n3nc(-c4cccc(C)c4)nc23)c1 | > 25 | > 25
Cc1c(C(=O)NCCc2nc3ccccc3[nH]2)oc2c1ccc1ccccc12 | > 25 | 3
C[C@H]1CCc2[nH]c3ccc(C(=O)NC[C@H]4COc5ccccc5O4)cc3c2C1 | > 25 | 9.1
O=C(Cn1cc(-c2nnc(-c3ccccc3)o2)c2ccccc21)Nc1ccccc1 | 12 | > 25
